Molecules are shown by their SMILES.

What is called IC50 is the concentration that gives 50% inhibition. Lower therefore signals inhibition by little substance.

In this assay the test system is Endogenous Huntingtin Protein. Description: Endogenous Huntingtin Protein Assay (Meso Scale Discovery ELISA-based electrochemiluminescence). Format: cell-based. The conditions noted are these: MSD electrochemiluminescence, Table 1. Summed up: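 MSD electrochemiluminescence sandwich ELISA: MW1 (expanded polyQ) or MAB2166 capture antibody at 1 μg/mL, samples incubated overnight at 4° C. Detection with rabbit monoclonal #5656S then SULFO-TAG anti-rabbit antibody, each 0.25 μg/mL for 1 h at room temperature.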
(In general: In an ELISA, binding on a coated surface is turned into a signal by an enzyme label.)
`Cn1cc2cc(-c3cc4c(F)cc(C5=CCNCC5)cc4nn3)cc(C#N)c2n1` [Compound 175, 5-[5-fluoro-7-(1,2,3,6-tetrahydropyridin-4-yl)cinnolin-3-yl]-2-methyl-2H-indazole-7-carbonitrile]: the IC50 is ≤ 100 nM.
For `Cc1cn2cc(-c3nnc4cc(C5CCNCC5)ccc4n3)cc(C)c2n1` [Compound 27, 3-(2,8-dimethylimidazo[1,2-a]pyridin-6-yl)-7-(piperidin-4-yl)-1,2,4-benzotriazine] the value was 100 to 500 nM; for `Cc1cn2cc(-c3nnc4cc(C5CCNCC5)ccc4n3)cc2c(C)n1` [Compound 28, 3-(1,3-dimethylpyrrolo[1,2-a]pyrazin-7-yl)-7-(piperidin-4-yl)-1,2,4-benzotriazine], 1000 to 3000 nM.
The result for `Cn1cc2cc(-c3ccc4nc(C5CCNCC5)ccc4c3)ccc2n1` [Compound 3, 6-(2-methyl-2H-indazol-5-yl)-2-(piperidin-4-yl)quinolone] reads 100 to 500 nM; that for `CCCc1cc(-c2cc(F)c3cc(C4CCN(CC)CC4)nnc3c2)nn2cc(C)nc12` [Compound 212, 3-(1-ethylpiperidin-4-yl)-5-fluoro-7-(2-methyl-8-propylimidazo[1,2-b]pyridazin-6-yl)cinnoline], 100 to 500 nM; that for `Cc1cc(-c2cc3c(F)cc(C4CCNCC4)cc3nn2)cc2cn(C)nc12` [Compound 177, 3-(2,7-dimethyl-2H-indazol-5-yl)-5-fluoro-7-(piperidin-4-yl)cinnoline], ≤ 100 nM.
Take `Cc1cn2cc(-c3nnc4cc(C5CCNCC5)ccc4n3)cc(F)c2n1` [Compound 43, 3-(8-fluoro-2-methylimidazo[1,2-a]pyridin-6-yl)-7-(piperidin-4-yl)-1,2,4-benzotriazine]: the half-inhibitory concentration (IC50) is ≤ 100 nM.
The result for `Cc1cc(-c2cnc3cc(C4CCNCC4)ccc3c2)cc2cn(C)nc12` [Compound 29, 3-(2,7-dimethyl-2H-indazol-5-yl)-7-(piperidin-4-yl)quinoline] reads 1000 to 3000 nM.
In the case of `Cn1cc2cc(-c3ccc4cc(C5CCNCC5)cc(F)c4n3)cc(F)c2n1` [Compound 192, 8-fluoro-2-(7-fluoro-2-methyl-2H-indazol-5-yl)-6-(piperidin-4-yl)quinoline], the IC50 is ≤ 100 nM.
For `Cc1cc(-c2cc(F)c3nc(N(C)C4CCNCC4)nnc3c2)cc2cn(C)nc12` [Compound 42, 7-(2,7-dimethyl-2H-indazol-5-yl)-5-fluoro-N-methyl-N-(piperidin-4-yl)-1,2,4-benzotriazin-3-amine] the value was 100 to 500 nM; for `Cc1cn2nc(-c3nnc4cc(C5CCNCC5)ccc4n3)cc(C)c2n1` [Compound 44, 3-(2,8-dimethylimidazo[1,2-b]pyridazin-6-yl)-7-(piperidin-4-yl)-1,2,4-benzotriazine], 100 to 500 nM; for `Cc1cn2nc(-c3cc(F)c4cc(C5CCNCC5)nnc4c3)cc(CO)c2n1` [Compound 107, {6-[5-fluoro-3-(piperidin-4-yl)cinnolin-7-yl]-2-methylimidazo[1,2-b]pyridazin-8-yl}methanol], ≤ 100 nM.
In turn, `Cn1cc2cc(-c3ccc4nc(C5CCNCC5)cnc4c3)cc(C(F)(F)F)c2n1` [Compound 24, 6-[2-methyl-7-(trifluoromethyl)-2H-indazol-5-yl]-2-(piperidin-4-yl)quinoxaline] yielded a half-inhibitory concentration (IC50) of 100 to 500 nM.
The result for `Cc1cc2oc(-c3cc(F)c4cc(C5C[C@@H](C)N(C)[C@@H](C)C5)nnc4c3)nc2c(C)n1` (stereo partly drawn) [Compound 228, 7-(4,6-dimethyloxazolo[4,5-c]pyridin-2-yl)-5-fluoro-3-((2S,4R,6R)-1,2,6-trimethylpiperidin-4-yl)cinnoline] reads 100 to 500 nM; that for `Cc1cn2nc(-c3cc(F)c4cc(C5CCNCC5)nnc4c3)cc(OCCCN(C)C)c2n1` [Compound 139, 3-({6-[5-fluoro-3-(piperidin-4-yl)cinnolin-7-yl]-2-methylimidazo[1,2-b]pyridazin-8-yl}oxy)-N,N-dimethylpropan-1-amine], ≤ 100 nM.
The result for `Cc1cc(-c2ccc3nc(C4CC(C)(C)NC(C)(C)C4)ccc3c2)cc2cn(C)nc12` [Compound 14, 6-(2,7-dimethyl-2H-indazol-5-yl)-2-(2,2,6,6-tetramethylpiperidin-4-yl)quinoline] reads 100 to 500 nM; that for `CCN1CCC(c2cc3c(F)cc(-c4cc(C5CC5)c5nc(C)cn5n4)cc3nn2)CC1` [Compound 115, 7-(8-cyclopropyl-2-methylimidazo[1,2-b]pyridazin-6-yl)-3-(1-ethylpiperidin-4-yl)-5-fluorocinnoline], ≤ 100 nM; that for `Cc1cc(-c2cc(F)c3nc(C4CCNCC4)nnc3c2)nc2cn(C)nc12` [Compound 66, 7-(2,7-dimethyl-2H-pyrazolo[4,3-b]pyridin-5-yl)-5-fluoro-3-(piperidin-4-yl)-1,2,4-benzotriazine], ≤ 100 nM.
In the case of `Cn1cc2cc(-c3ncc4cc(C5CCNCC5)ccc4n3)ccc2n1` [Compound 10, 2-(2-methyl-2H-indazol-5-yl)-6-(piperidin-4-yl)quinazoline], the IC50 lay within 100 to 500 nM.
The result for `Cc1cc2sc(-c3cc(F)c4cc(C5CCNCC5)nnc4c3)nc2c(C)n1` [Compound 149, 7-(4,6-dimethyl[1,3]thiazolo[4,5-c]pyridin-2-yl)-5-fluoro-3-(piperidin-4-yl)cinnoline] reads ≤ 100 nM; that for `Cc1cn2nc(-c3cc(F)c4cc(C5CCNCC5)nnc4c3)cc(OCCn3cccn3)c2n1` [Compound 140, 5-fluoro-7-{2-methyl-8-[2-(1H-pyrazol-1-yl)ethoxy]imidazo[1,2-b]pyridazin-6-yl}-3-(piperidin-4-yl)cinnoline], ≤ 100 nM; that for `Cc1cc(-c2cc(F)c3cc(C4C[C@@H](C)N(C)[C@@H](C)C4)nnc3c2)nc2cn(C)nc12` (stereo partly drawn) [Compound 227, 7-(2,7-dimethyl-2H-pyrazolo[4,3-b]pyridin-5-yl)-5-fluoro-3-((2S,4R,6R)-1,2,6-trimethylpiperidin-4-yl)cinnoline], ≤ 100 nM.
The result for `Cc1cn2nc(-c3cc(F)c4cc(C5CCN(CCCn6cccn6)CC5)nnc4c3)cc(C)c2n1` [Compound 160, 7-(2,8-dimethylimidazo[1,2-b]pyridazin-6-yl)-5-fluoro-3-{1-[3-(1H-pyrazol-1-yl)propyl]piperidin-4-yl}cinnoline] reads ≤ 100 nM; that for `Cc1cn2nc(-c3cc(F)c4cc(C5CCN(CC(F)F)CC5)nnc4c3)cc(C)c2n1` [Compound 98, 3-[1-(2,2-difluoroethyl)piperidin-4-yl]-7-(2,8-dimethylimidazo[1,2-b]pyridazin-6-yl)-5-fluorocinnoline], 100 to 500 nM; that for `Cn1cc2cc(-c3nnc4cc(C5CCNCC5)ccc4n3)cc(F)c2n1` [Compound 25, 3-(7-fluoro-2-methyl-2H-indazol-5-yl)-7-(piperidin-4-yl)-1,2,4-benzotriazine], ≤ 100 nM.
The result for `Cc1cc2cc(-c3cc(F)c4cc(C5CCNCC5)nnc4c3)oc2c(C)n1` [Compound 146, 7-(5,7-dimethylfuro[2,3-c]pyridin-2-yl)-5-fluoro-3-(piperidin-4-yl)cinnoline] reads ≤ 100 nM; that for `Cc1cc2cc(-c3cc(F)c4nc(C5CCNCC5)nnc4c3)cc(C)n2n1` [Compound 65, 7-(2,7-dimethylpyrazolo[1,5-a]pyridin-5-yl)-5-fluoro-3-(piperidin-4-yl)-1,2,4-benzotriazine], 100 to 500 nM; that for `Cc1cn2nc(-c3cc(F)c4cc(C5CCN(C)CC5)nnc4c3)cc(CO)c2n1` [Compound 180, {6-[5-fluoro-3-(1-methylpiperidin-4-yl)cinnolin-7-yl]-2-methylimidazo[1,2-b]pyridazin-8-yl}methanol], ≤ 100 nM.
`CCN1CCC(c2cc3ccc(-c4cc(C)c5nc(C)cn5n4)cc3nn2)CC1` [Compound 85, 7-(2,8-dimethylimidazo[1,2-b]pyridazin-6-yl)-3-(1-ethylpiperidin-4-yl)cinnoline] displayed an IC50 of 100 to 500 nM.
With `Cc1cn2nc(-c3cc(F)c4nc(C5CCNCC5)ncc4c3)cc(C)c2n1` [Compound 37, 6-(2,8-dimethylimidazo[1,2-b]pyridazin-6-yl)-8-fluoro-2-(piperidin-4-yl)quinazoline], the half-inhibitory concentration (IC50) is ≤ 100 nM.
For `CC[C@H]1CC(c2cc3c(F)cc(-c4cc(C)c5nc(C)cn5n4)cc3nn2)C[C@H](CC)N1` (stereo partly drawn) [Compound 130, 3-[(2S,6S)-2,6-diethylpiperidin-4-yl]-7-(2,8-dimethylimidazo[1,2-b]pyridazin-6-yl)-5-fluorocinnoline] the value was ≤ 100 nM.
As to `Cc1cn2cc(-c3cc(F)c4nc(C5CCNCC5)nnc4c3)cc(F)c2n1` [Compound 58, 5-fluoro-7-(8-fluoro-2-methylimidazo[1,2-a]pyridin-6-yl)-3-(piperidin-4-yl)-1,2,4-benzotriazine], the IC50 is ≤ 100 nM.
The result for `Cc1nc2c(F)cc(-c3cc(F)c4nc(C5CCNCC5)nnc4c3)cc2o1` [Compound 68, 5-fluoro-7-(4-fluoro-2-methyl-1,3-benzoxazol-6-yl)-3-(piperidin-4-yl)-1,2,4-benzotriazine] reads ≤ 100 nM.
For `CCc1cc(-c2cc(F)c3cc(C4CCN(CCO)CC4)nnc3c2)nn2cc(C)nc12` [Compound 123, 2-{4-[7-(8-ethyl-2-methylimidazo[1,2-b]pyridazin-6-yl)-5-fluorocinnolin-3-yl]piperidin-1-yl}ethan-1-ol] the value was ≤ 100 nM; for `Cc1cn2cc(-c3cc(F)c4nc(C5CCNCC5)nnc4c3)cc(C)c2n1` [Compound 60, 7-(2,8-dimethylimidazo[1,2-a]pyridin-6-yl)-5-fluoro-3-(piperidin-4-yl)-1,2,4-benzotriazine], 100 to 500 nM.
For `Cn1cc2cc(-c3cc(F)c4nc(C5CCNCC5)ncc4c3)cc(F)c2n1` [Compound 36, 8-fluoro-6-(7-fluoro-2-methyl-2H-indazol-5-yl)-2-(piperidin-4-yl)quinazoline] the value was ≤ 100 nM; for `Cn1cc2c(F)c(-c3cc(F)c4cc(C5CCNCC5)nnc4c3)ccc2n1` [Compound 109, 5-fluoro-7-(4-fluoro-2-methyl-2H-indazol-5-yl)-3-(piperidin-4-yl)cinnoline], 500 to 1000 nM.

The record behind these values is US12384789B2, “Compounds for treating Huntington's disease” (PTC Therapeutics, Inc., priority 2017, dated 2025).
